Data reported in patent US11390609B2, “Rho-associated protein kinase inhibitor, pharmaceutical composition comprising same, and preparation method and use thereof” (BEIJING TIDE PHARMACEUTICAL CO., LTD., priority 2017, dated 2022).

What was measured:
ROCK2 = ROCK2 (Homo sapiens, UniProt O75116); assay: ROCK2 kinase IC50 assay (CISBIO HTRF KinEASE-STK S2 kit); format: biochemical; details: incubated at room temperature for 2 hours
Protocol: The kinase IC50 was determined by a commercialized CISBIO kinase detection kit, HTRF KinEASE-STK S2 kit (62ST2PEC). ROCK2 (01-119) employed in the reaction was purchased from Carna Biosciences.
Before the assay, the following working solutions as needed were formulated with corresponding reagents according to the instruction of the kinase detection kit: 1×kinase buffer, 5×STK-52 substrate working solution (1.5 μM) and 5×ATP working solution (1.5 μM), 5×ROCK2 kinase working solution, 4×Streptavidin-XL665 working solution, and 4×STK-Ab-Cryptate 2 detection solution. Then the assay was performed according to the following procedure.
A solution of a compound at a concentration of 10000 nM was prepared with the 1×kinase buffer containing 2.5% DMSO. Gradient dilution of the solution of the compound was performed with the kinase buffer containing DMSO, so as to obtain solutions of a test compound at 9 different concentrations. In addition to wells of test compounds, a positive well (containing all the reagents except the compound) and a negative well (containing all the reagents except the test compound and kinase) were set. Except for the control wells (positive and negative wells), a solution of a test compound (4 μL) was added to each of the reaction wells, and a solution of 2.5% DMSO was added to the control wells. Then the substrate ([…], 2 μL. 5×STK-S2 substrate working solution) was added to each of the reaction wells. The 5×ROCK2 kinase working solution (2 μL, containing 1.4 ng ROCK2 kinase) was added to each of the reaction wells except for the negative well, the volume of which was made up with the 1×kinase buffer (2 μL). The 5×ATP working solution (2 μL) was added to each of the reaction wells, and the mixtures were incubated at room temperature for 2 hours. After the kinase reaction was complete, the 4×Streptavidin-XL665 working solution was added to each of the reaction wells, the solutions were mixed, followed by immediate addition of the 4×STK-Ab-Cryptate 2 detection solution (5 μL), and the mixtures were incubated at room temperature for 1 hour. The fluorescence signal was read on ENVISION (Perkinelmer) (excitation wavelength: 320 nm, and emission wavelength: 665 nm and 615 nm). The inhibitory rate in each well was calculated based on the fluorescence intensity value: ER (Emission Ratio)=(fluorescence intensity at 665 nm/fluorescence intensity at 615 nm); inhibitory rate=(ERpositive−ERtest compound)/(ERpositive−ERnegative)*100%. Curves were plotted and fitted to obtain the median inhibitory concentration (IC50) of each teat compound with the PRISM 5.0 software.

ROCK1 = ROCK1 (Homo sapiens (Human), UniProt Q13464); assay: ROCK1 kinase IC50 assay (biological test method similar to the ROCK2 assay); format: biochemical
ROCK1, sequence (Q13464 whole entry, species assumed): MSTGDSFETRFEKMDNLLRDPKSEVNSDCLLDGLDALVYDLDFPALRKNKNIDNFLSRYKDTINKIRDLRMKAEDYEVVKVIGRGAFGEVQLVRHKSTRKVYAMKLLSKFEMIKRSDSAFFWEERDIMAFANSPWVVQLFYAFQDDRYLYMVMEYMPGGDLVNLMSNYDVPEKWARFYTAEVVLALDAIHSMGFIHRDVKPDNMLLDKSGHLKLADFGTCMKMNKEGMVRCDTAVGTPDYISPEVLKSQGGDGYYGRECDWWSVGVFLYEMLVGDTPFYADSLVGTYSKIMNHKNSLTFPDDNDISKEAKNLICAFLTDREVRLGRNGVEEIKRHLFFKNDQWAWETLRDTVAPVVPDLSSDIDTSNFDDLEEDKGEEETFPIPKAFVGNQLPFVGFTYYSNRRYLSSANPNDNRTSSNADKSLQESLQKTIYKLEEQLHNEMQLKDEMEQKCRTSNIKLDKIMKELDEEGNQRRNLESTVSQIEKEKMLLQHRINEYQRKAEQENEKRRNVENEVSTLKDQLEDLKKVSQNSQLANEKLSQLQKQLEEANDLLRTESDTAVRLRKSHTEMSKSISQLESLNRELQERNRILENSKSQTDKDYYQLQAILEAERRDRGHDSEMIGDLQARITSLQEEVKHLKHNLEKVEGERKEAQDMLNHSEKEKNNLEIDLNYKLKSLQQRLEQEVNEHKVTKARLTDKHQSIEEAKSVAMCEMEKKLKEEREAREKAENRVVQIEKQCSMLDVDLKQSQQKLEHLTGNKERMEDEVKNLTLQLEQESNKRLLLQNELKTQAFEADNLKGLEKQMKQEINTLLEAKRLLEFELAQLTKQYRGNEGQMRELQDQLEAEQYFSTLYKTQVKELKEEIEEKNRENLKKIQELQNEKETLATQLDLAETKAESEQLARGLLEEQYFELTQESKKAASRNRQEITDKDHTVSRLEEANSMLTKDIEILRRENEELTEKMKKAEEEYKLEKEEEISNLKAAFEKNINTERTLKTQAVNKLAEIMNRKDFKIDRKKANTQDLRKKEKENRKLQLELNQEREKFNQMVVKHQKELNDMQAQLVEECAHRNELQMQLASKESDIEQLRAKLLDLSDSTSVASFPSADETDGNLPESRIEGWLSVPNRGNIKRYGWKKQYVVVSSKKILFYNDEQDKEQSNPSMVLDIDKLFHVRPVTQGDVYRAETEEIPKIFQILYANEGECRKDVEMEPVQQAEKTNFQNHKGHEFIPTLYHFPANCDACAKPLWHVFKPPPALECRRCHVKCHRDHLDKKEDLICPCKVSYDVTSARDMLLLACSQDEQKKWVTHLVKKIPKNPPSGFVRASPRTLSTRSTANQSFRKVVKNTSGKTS
Outline: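 HTRF KinEASE-STK S2 assay with the STK-S2 biotinylated substrate and ATP, at 5× working solutions of 1.5 µM each. Kinase reaction with 9-point compound dilutions ran 2 h at room temperature, followed by 1 h streptavidin-XL665/Cryptate detection. The 665/615 nm ratio was normalised to no-compound and no-kinase wells, and IC50 was obtained by curve fitting.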

Row | IC50 (ROCK2) | IC50 (ROCK1) | Compound
1 | 0.4 µM | 5.63 µM | 5-(4-((4-(1H-pyrazol-4- yl)phenyl)amino)pyrimidin- 2-yl)-N,N-diethyl-1H- indole-2-carboxamide [TDI01408]
2 | 0.5 µM | – | CC(C)(C)OC(=O)n1ncc2cc(NC(=O)c3cc4ccc(-c5nccc(Nc6ccc7[nH]ncc7c6)n5)cc4[nH]3)ccc21 [TDI01248, tert-butyl 5-(6-(4-((1H-indazol-5-yl)amino)-pyrimidin-2-yl)-1H-indole-2-carboxamido)-1H-indazole-1-carboxylate]
3 | 0.258 µM | > 10 µM | CN1CCN(C2CCN(C(=O)c3cc4ccc(-c5nccc(Nc6ccc7[nH]ncc7c6)n5)cc4[nH]3)CC2)CC1 [TDI01319, (6-(4-((1H-indazol-5-yl)amino)-pyrimidin-2-yl)-1H-indol-2-yl)(4-(4-methyl-piperazin-1-yl)piperidin-1-yl)methanone]
4 | 0.307 µM | – | CN(C)C(=O)c1cc2ccc(-c3nccc(Nc4ccc5[nH]ncc5c4)n3)cc2[nH]1 [TDI01353, 6-(4-((1H-indazol-5-yl)amino)-pyrimidin-2-yl)-N,N-dimethyl-1H-indole-2-carboxamide]
5 | 0.026 µM | 1.47 µM | O=C(c1cc2ccc(-c3nccc(Nc4ccc5[nH]ncc5c4)n3)cc2[nH]1)N1CCC2(CCNCC2)CC1 [TDI01360, (6-(4-((1H-indazol-5-yl)amino)-pyrimidin-2-yl)-1H-indol-2-yl)(3.9-diazaspiro[5.5]undecan-3-yl)methanone]
6 | 0.266 µM | 6.79 µM | O=C(c1cc2ccc(-c3nccc(Nc4ccc(-c5cn[nH]c5)cc4)n3)cc2[nH]1)N1CC2(CNC2)C1 [TDI01369, (6-(4-((4-(1H-pyrazol-4-yl)phenyl)-amino)-pyrimidin-2-yl)-1H-indol-2-yl)(2,6-diazaspiro[3.3]heptan-2-yl)methanone]
7 | 0.123 µM | > 10 µM | O=C(Nc1ccncc1Cl)c1cc2ccc(-c3nccc(Nc4ccc5[nH]ncc5c4)n3)cc2s1 [TDI01372, 6-(4-((1H-indazol-5-yl)amino)-pyrimidin-2-yl)-N-(3-chloropyridin-4-yl)benzo[b]-thiophene-2-carboxamide]
8 | 0.064 µM | > 10 µM | O=C(Nc1ccncc1Cl)N1Cc2ccc(-c3nccc(Nc4ccc5[nH]ncc5c4)n3)cc2C1 [TDI01374, 5-(4-((1H-indazol-5-yl)amino)pyrimidin-2-yl)-N-(3-chloropyridin-4-yl)isoindoline-2-carboxamide]
9 | 0.107 µM | – | COC(=O)C(Cc1c[nH]cn1)NC(=O)c1cc2ccc(-c3nccc(Nc4ccc5[nH]ncc5c4)n3)cc2[nH]1 (stereo not drawn) [TDI01385, methyl (6-(4-((1H-indazol-5-yl)amino)-pyrimidin-2-yl)-1H-indole-2-carbonyl)-histidinate]
10 | 0.018 µM | 0.456 µM | O=C(NC1CCCN(C2CCOCC2)C1)c1cc2ccc(-c3nccc(Nc4ccc5[nH]ncc5c4)n3)cc2[nH]1 (stereo not drawn) [TDI01390, 6-(4-((1H-indazol-5-yl)amino)-pyrimidin-2-yl)-N-(1-(tetrahydro-2H-pyran-4-yl)piperidin-3-yl)-1H-indole-2-carboxamide]
11 | 0.172 µM | > 10 µM | CN(C(=O)c1cc2ccc(-c3nccc(Nc4ccc5[nH]ncc5c4)n3)cc2s1)C1CCOC1 (stereo not drawn) [TDI01392, 6-(4-((1H-indazol-5-yl)amino)pyrimidin-2-yl)-N-methyl-N-(tetrahydrofuran-3-yl)ben-zo[b]thiophene-2-carboxamide]
12 | 0.028 µM | > 10 µM | O=C(Nc1ccncc1F)c1cc2ccc(-c3nccc(Nc4ccc5[nH]ncc5c4)n3)cc2[nH]1 [TDI01394, 6-(4-((1H-indazol-5-yl)amino)pyrimidin-2-yl)-N-(3-fluoropyridin-4-yl)-1H-indole-2-carboxamide]
13 | 0.11 µM | 3 µM | O=C(Oc1ccccc1)N1Cc2ccc(-c3nccc(Nc4ccc5[nH]ncc5c4)n3)cc2C1 [TDI01403, phenyl 5-(4-((1H-indazol-5-yl)amino)pyrimidin-2-yl)isoindoline-2-caiboxylate]
14 | 0.035 µM | 1.52 µM | O=C(c1cc2ccc(-c3nc(Nc4ccc5[nH]ncc5c4)c4sccc4n3)cc2[nH]1)N1CCC2(CCNCC2)CC1 [TDI01404, (6-(4-((1H-indazol-5-yl)amino)-thieno[3,2-d]pyrimidin-2-yl)-1H-indol-2-yl)(3,9-diazaspiro[5.5]undecan-3-yl)methanone]
15 | 0.16 µM | 4.06 µM | CNC(=O)c1cc2ccc(-c3nc(Nc4ccc5[nH]ncc5c4)c4sccc4n3)cc2[nH]1 [TDI01405, 6-(4-((1H-indazol-5-yl)amino)-thieno[3,2-d]pyrimidin-2-yl)-N-methyl-1H-indole-2-carboxamide]
16 | 0.285 µM | – | CN(C)C(=O)c1cc2ccc(-c3nc(Nc4ccc5[nH]ncc5c4)c4sccc4n3)cc2[nH]1 [TDI01406, 6-(4-((1H-indazol-5-yl)amino)-thieno[3,2-d]pyrimidin-2-yl)-N,N-dimethyl-1H-indole-2-carboxamide]
17 | 0.36 µM | – | O=C(C1CC(F)(F)C1)N1CCc2ccc(-c3nccc(Nc4ccc5[nH]ncc5c4)n3)cc2C1 [TDI01682, (7-(4-((1H-indazol-5-yl)amino)pyrimidin-2-yl)-3,4-dihydroisoquinolin-2(1H)-yl)(3,3-difluorocyclobutyl)methanone]
18 | 0.171 µM | – | Cn1c(-n2ccnc2)cc2ccc(-c3nccc(Nc4ccc(-c5cn[nH]c5)c(F)c4)n3)cc21 [TDI01684, 2-(2-(1H-imidazol-1-yl)-1-methyl-1H-indol-6-yl)-N-(3-fluoro-4-(1H-pyrazol-4-yl)phenyl)pyrimidin-4-amine]
19 | 0.068 µM | – | COc1cc(Nc2ccc3[nH]ncc3c2)nc(-c2ccc3cc(C(=O)Nc4ccnnc4)[nH]c3c2)n1 [TDI01801, 6-(4-((1H-indazol-5-yl)amino)-6-methoxy-pyrimidin-2-yl)-N-(pyridazin-4-yl)-1H-indole-2-carboxamide]
20 | 0.018 µM | – | O=C(NC1CCN(c2ccncc2)CC1)c1cc2ccc(-c3nccc(Nc4ccc5[nH]ncc5c4)n3)cc2[nH]1 [TDI01814, 6-(4-((1H-indazol-5-yl)amino)-pyrimidin-2-yl)-N-(1-(pyridin-4-yl)piperidin-4-yl)-1H-indole-2-carboxamide]
21 | 0.132 µM | – | C[C@@H](NC(=O)c1cc2ccc(-c3nccc(Nc4ccc5[nH]ncc5c4)n3)cc2[nH]1)c1ccncc1 [TDI01849, (R)-6-(4-((1H-indazol-5-yl)amino)-pyrimpidin-2-yl)-N-(1-(pyridin-4-yl)ethyl)-1H-indole-2-carboxamide]
22 | 0.4 µM | – | CC(C)NC(=O)c1cc2ccc(-c3nc(Nc4ccc(-c5cn[nH]c5)cc4)cc(OCCN(C)C)n3)cc2[nH]1 [TDI01865, 6-(4-((4-(1H-pyrazol-4-yl)phenyl)amino)-6-(2-(dimethylami-no)ethoxy)pyrimidin-2-yl)-N-isopropyl-1H-indole-2-carboxamide]
23 | 0.009 µM | – | O=C(NC1CCCC(N2CCOCC2)C1)c1cc2ccc(-c3nccc(Nc4ccc(-c5cn[nH]c5)cc4)n3)cc2[nH]1 (stereo not drawn) [TDI01878, 6-(4-((4-(1H-pyrazol-4-yl)phenyl)-amino)-pyrimidin-2-yl)-N-(3-morpholino-cyclohexyl)-1H-indole-2-carboxamide]
24 | 0.387 µM | – | Cc1cc2ccc(-c3nccc(Nc4ccc5[nH]ncc5c4)n3)cc2[nH]1 [TDI01901, N-(2-(2-methyl-1H-indol-6-yl)pyrimidin-4-yl)-1H-indazol-5-amine]
